According to article PMC5791972 (PLoS ONE, 2018):
Where two headings read alike, the source gives them in different places.

Experiments:
hTRPC4 = target: T1, hTRPC4 (Homo sapiens, UniProt Q9UBN4); test: Whole-cell manual patch clamp; format: cell-based; conditions: 10 µM carbachol /M1R
T1 construct: The cDNAs for various full-length ion channels were subcloned into pcDNA5/TO; expressed in transfected cells; M1R co-expressed in the calcium assay, M2R in patch clamp

Y1 (h) = target: T2, Y1 (h) (Homo sapiens, UniProt P25929); format: binding; conditions: 1.0E-06 M
T2 construct: (endogenous); host or cells: SK-N-MC cells
T2 sequence (P25929 1-384): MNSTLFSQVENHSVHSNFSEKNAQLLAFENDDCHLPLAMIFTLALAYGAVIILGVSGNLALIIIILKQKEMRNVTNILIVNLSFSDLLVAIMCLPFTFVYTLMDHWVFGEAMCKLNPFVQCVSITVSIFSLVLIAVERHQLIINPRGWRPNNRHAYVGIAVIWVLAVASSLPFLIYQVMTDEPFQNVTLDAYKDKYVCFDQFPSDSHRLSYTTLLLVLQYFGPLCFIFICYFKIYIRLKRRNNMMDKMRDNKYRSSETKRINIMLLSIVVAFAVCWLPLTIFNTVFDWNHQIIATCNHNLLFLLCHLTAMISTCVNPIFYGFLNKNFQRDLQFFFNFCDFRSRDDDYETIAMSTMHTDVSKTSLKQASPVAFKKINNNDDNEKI

PDE6 (non-selective) = target: T3, PDE6 (non-selective) (Bos taurus, UniProt P11541+P23439); test: enzyme assay; format: biochemical, bovine; conditions: 1.0E-06 M
T3 construct: PDE6 bovine [3H]cGMP; tissue Cerep (contract assay); host or cells: bovine retina
T3 sequence (P11541 2-856 limits assumed): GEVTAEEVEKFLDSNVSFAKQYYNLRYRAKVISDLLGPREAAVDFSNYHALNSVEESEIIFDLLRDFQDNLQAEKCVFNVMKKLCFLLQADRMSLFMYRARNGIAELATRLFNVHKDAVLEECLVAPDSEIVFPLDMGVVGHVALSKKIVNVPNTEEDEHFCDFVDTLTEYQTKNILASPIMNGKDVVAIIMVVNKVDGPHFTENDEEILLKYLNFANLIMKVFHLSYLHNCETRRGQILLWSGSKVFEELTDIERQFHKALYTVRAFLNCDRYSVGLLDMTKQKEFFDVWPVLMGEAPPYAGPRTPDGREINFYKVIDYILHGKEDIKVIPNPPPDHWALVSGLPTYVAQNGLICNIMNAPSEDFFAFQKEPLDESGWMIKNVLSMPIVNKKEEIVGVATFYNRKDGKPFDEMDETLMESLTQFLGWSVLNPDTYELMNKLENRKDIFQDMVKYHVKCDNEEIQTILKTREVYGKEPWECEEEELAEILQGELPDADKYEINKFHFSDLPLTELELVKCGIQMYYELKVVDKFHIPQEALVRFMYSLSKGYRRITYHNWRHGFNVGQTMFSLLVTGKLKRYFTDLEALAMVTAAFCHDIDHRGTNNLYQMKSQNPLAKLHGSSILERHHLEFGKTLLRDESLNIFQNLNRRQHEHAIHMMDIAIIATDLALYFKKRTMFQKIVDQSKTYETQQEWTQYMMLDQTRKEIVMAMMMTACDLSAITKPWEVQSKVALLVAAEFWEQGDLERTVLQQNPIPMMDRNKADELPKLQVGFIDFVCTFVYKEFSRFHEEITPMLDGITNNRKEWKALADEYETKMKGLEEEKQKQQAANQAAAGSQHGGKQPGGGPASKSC
T3 sequence (P23439 2-850 limits assumed): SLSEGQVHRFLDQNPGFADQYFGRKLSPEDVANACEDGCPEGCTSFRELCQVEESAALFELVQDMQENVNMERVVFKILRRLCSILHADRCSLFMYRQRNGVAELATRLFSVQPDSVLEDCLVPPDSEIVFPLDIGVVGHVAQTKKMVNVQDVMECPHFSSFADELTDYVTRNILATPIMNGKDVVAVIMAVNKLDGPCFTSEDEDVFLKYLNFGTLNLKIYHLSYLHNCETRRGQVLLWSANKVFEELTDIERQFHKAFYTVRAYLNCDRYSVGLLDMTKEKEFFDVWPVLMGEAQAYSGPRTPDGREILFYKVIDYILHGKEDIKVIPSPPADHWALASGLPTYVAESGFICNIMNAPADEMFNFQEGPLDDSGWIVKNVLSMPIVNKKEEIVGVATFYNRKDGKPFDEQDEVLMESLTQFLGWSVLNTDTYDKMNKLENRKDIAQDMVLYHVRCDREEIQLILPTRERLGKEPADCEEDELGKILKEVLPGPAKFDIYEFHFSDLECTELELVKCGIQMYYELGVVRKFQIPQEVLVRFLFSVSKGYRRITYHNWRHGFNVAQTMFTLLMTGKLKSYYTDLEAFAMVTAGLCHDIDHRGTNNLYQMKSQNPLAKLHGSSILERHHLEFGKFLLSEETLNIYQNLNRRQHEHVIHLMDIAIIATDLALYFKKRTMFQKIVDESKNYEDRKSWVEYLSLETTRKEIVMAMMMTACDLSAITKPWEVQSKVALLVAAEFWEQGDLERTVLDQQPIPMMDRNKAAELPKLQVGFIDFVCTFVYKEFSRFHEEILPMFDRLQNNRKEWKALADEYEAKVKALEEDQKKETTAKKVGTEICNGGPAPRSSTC

M4 (h) = target: T4, M4 (h) (Homo sapiens, UniProt P08173); test: biochemical
T4 sequence (P08173 1-479): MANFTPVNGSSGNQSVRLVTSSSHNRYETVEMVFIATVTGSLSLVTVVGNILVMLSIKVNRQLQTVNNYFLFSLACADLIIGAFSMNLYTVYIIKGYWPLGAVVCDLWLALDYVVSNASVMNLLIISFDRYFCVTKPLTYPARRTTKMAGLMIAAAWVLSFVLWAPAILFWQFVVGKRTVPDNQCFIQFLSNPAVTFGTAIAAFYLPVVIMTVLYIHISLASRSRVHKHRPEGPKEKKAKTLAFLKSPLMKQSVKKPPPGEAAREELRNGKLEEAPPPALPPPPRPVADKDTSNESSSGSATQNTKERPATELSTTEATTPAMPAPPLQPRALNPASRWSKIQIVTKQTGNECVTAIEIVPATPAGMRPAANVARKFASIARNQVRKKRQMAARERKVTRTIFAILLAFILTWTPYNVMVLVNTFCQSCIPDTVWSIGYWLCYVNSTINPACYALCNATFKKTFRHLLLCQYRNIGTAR

μ (MOP) (h) = μ (MOP) (h) (Homo sapiens, UniProt P35372); test: biochemical
Sequence of μ (MOP) (h) (P35372 whole entry): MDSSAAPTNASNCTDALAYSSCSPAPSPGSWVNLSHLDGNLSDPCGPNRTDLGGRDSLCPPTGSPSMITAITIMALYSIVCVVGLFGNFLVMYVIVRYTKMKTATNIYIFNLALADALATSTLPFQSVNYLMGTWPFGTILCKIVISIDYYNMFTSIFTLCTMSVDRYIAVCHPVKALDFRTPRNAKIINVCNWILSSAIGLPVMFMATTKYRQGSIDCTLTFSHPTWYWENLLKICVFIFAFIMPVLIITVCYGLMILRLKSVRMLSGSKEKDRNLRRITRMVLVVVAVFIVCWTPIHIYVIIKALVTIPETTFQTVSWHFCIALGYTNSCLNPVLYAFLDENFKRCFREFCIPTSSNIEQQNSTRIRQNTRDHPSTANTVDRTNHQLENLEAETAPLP

T1 sequence (Q9UBN4 1-893 isoform Q9UBN4-2): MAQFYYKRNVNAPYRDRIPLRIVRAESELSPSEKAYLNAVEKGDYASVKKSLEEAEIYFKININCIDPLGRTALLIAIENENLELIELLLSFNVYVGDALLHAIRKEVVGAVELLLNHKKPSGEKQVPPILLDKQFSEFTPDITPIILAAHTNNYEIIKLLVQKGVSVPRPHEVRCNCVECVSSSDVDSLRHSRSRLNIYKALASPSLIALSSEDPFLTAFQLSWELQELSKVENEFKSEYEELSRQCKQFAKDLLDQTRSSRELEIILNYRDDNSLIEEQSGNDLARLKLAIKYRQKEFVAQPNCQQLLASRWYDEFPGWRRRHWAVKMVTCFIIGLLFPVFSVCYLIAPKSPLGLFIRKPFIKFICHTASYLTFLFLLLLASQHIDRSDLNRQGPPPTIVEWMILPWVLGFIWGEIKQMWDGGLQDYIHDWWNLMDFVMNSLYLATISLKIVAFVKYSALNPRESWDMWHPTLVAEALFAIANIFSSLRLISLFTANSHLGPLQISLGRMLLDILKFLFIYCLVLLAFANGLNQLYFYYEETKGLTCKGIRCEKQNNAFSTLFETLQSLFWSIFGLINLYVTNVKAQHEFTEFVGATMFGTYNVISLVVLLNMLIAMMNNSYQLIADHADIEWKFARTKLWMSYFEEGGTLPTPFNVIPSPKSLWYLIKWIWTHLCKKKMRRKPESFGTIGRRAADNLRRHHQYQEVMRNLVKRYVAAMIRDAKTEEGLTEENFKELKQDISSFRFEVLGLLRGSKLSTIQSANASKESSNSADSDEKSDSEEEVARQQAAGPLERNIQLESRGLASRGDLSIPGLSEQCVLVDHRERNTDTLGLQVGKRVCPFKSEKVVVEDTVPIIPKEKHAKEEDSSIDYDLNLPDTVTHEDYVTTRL

With `Cn1c(=O)n(CCCO)c(=O)c2c1nc(Oc1cccc(OC(F)(F)F)c1)n2Cc1ccc(Cl)cc1` [HC-608] the IC50 (hTRPC4) was ~0.17 nM, the inhibition at 1 µM (Y1 (h); read-out: % Inhibition 1st) was -12.8% and the inhibition at 1 µM (Y1 (h); read-out: % Inhibition 2nd) was -14.1%. The inhibition at 1 µM (Y1 (h); read-out: % Inhibition Mean) was -13.4%, the inhibition at 1 µM (PDE6 (non-selective); read-out: % Inhibition 1st) was 25.3% and the inhibition at 1 µM (PDE6 (non-selective); read-out: % Inhibition 2nd) was 8.8%. The inhibition at 1 µM (PDE6 (non-selective); read-out: % Inhibition Mean) was 17%, the inhibition at 1 µM (M4 (h); read-out: % Inhibition 1st) was -16.1% and the inhibition at 1 µM (M4 (h); read-out: % Inhibition 2nd) was 3.9%. It also gave an inhibition at 1 µM (M4 (h); read-out: % Inhibition Mean) of -6.1%, an inhibition at 1 µM (μ (MOP) (h); read-out: % Inhibition 1st) of 0.1% and an inhibition at 1 µM (μ (MOP) (h); read-out: % Inhibition 2nd) of -6.8%. The inhibition at 1 µM (μ (MOP) (h); read-out: % Inhibition Mean) was -3.3%.
